# From patent US11020398B2, “Amino-pyrrolopyrimidinone compounds and methods of use thereof” (ArQule, Inc., priority 2016, dated 2021)
# How the values were obtained:
# [1] = target: full-length activated BTK mutant C481S (Homo sapiens (Human), UniProt Q06187, C481S); experiment: AlphaScreen assay, BTK mutant C481S; assay type: biochemical; details: for inhibition at 10 µM: read-out: BTK-C481S % @ 10 uM, @ 10 uM
# [2] = target: full-length activated BTK (wildtype) (Homo sapiens (Human), UniProt Q06187); experiment: AlphaScreen assay, wild-type BTK; assay type: biochemical; details: for inhibition at 10 µM: read-out: BTK % @ 10 uM, @ 10 uM
# full-length activated BTK (wildtype), sequence (Q06187 whole entry): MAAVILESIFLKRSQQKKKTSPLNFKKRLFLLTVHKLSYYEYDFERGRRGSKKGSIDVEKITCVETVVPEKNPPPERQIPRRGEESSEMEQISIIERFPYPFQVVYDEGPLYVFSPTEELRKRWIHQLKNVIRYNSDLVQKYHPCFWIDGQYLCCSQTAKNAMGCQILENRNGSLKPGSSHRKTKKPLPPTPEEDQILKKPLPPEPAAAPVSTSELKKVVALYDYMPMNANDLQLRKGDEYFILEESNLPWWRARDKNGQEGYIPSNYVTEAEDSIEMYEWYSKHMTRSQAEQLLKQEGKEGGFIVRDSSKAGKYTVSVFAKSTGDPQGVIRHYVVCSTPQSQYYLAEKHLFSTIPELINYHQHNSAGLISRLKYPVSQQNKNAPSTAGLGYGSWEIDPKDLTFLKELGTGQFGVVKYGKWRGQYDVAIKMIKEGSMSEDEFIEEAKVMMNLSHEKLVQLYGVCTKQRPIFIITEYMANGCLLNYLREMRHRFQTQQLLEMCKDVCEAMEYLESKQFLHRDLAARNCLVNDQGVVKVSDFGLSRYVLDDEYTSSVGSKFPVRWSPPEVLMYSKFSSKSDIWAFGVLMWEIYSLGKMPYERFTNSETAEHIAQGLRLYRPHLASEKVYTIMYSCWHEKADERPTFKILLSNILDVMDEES
# full-length activated BTK mutant C481S, sequence (Q06187 whole entry C481S): as the sequence (Q06187 whole entry) above, with C481S counted along it
smiles,measurement,setting,value
"O=C(NCCN1CCOCC1)c1ccc(C(=O)c2c[nH]c3ncnc(N[C@@H]4CC[C@@H](CO)OC4)c23)c(Cl)c1 [Compound I-613, 3-chloro-4-(4-(((3R,6S)-6-(hydroxymethyl)tetrahydro-2H-pyran-3-yl)amino)-7H-pyrrolo[2,3-d]pyrimidine-5-carbonyl)-N-(2-morpholinoethyl) benzamide]",inhibition at 10 µM,[1],64%
same,inhibition at 10 µM,[2],87%
"N#Cc1cccc(NC(=O)c2ccc(C(=O)c3c[nH]c4ncnc(N[C@@H]5CC[C@@H](CO)OC5)c34)c(Cl)c2)c1 [Compound I-614, 3-chloro-N-(3-cyanophenyl)-4-(4-(((3R,6S)-6-(hydroxymethyl)tetrahydro-2H-pyran-3-yl)amino)-7H-pyrrolo[2,3-d]pyrimidine-5-carbonyl)benzamide]",IC50,[1],228 nM
same,IC50,[2],142 nM
"O=C(c1ccc(C(=O)N2CCc3ccccc3C2)cc1Cl)c1c[nH]c2ncnc(N[C@@H]3CC[C@@H](CO)OC3)c12 [Compound I-615, (2-chloro-4-(1,2,3,4-tetrahydroisoquinoline-2-carbonyl)phenyl)(4-(((3R,6S)-6-(hydroxymethyl)tetrahydro-2H-pyran-3-yl)amino)-7H-pyrrolo[2,3-d]pyrimidin-5-yl)methanone]",IC50,[1],34.1 nM
same,IC50,[2],86.4 nM
"O=C(c1ccc(C(=O)N2CCN(c3ccccn3)CC2)cc1Cl)c1c[nH]c2ncnc(N[C@@H]3CC[C@@H](CO)OC3)c12 [Compound I-616, (3-chloro-4-(4-(((3R,6S)-6-(hydroxymethyl)tetrahydro-2H-pyran-3-yl)amino)-7H-pyrrolo[2,3-d]pyrimidine-5-carbonyl)phenyl)(4-(pyridin-2-yl)piperazin-1-yl)methanone]",IC50,[1],506 nM
same,IC50,[2],116 nM
"O=C(c1ccc(C(=O)N2CCCCC2)cc1Cl)c1c[nH]c2ncnc(N[C@@H]3CC[C@@H](CO)OC3)c12 [Compound I-617, (3-chloro-4-(4-(((3R,6S)-6-(hydroxymethyl)tetrahydro-2H-pyran-3-yl)amino)-7H-pyrrolo[2,3-d]pyrimidine-5-carbonyl)phenyl)(piperidin-1-yl)methanone]",IC50,[1],48.7 nM
same,IC50,[2],16.2 nM
"O=C(NCc1ccccc1)c1ccc(C(=O)c2c[nH]c3ncnc(N[C@@H]4CC[C@@H](CO)OC4)c23)c(Cl)c1 [Compound I-618, N-benzyl-3-chloro-4-(4-(((3R,6S)-6-(hydroxymethyl)tetrahydro-2H-pyran-3-yl)amino)-7H-pyrrolo[2,3-d]pyrimidine-5-carbonyl)benzamide]",IC50,[1],399 nM
same,IC50,[2],87.4 nM
"Cn1cc(NC(=O)c2ccc(C(=O)c3c[nH]c4ncnc(N[C@@H]5CC[C@@H](CO)OC5)c34)c(Cl)c2)cn1 [Compound I-619, 3-chloro-4-(4-(((3R,6S)-6-(hydroxymethyl)tetrahydro-2H-pyran-3-yl)amino)-7H-pyrrolo[2,3-d]pyrimidine-5-carbonyl)-N-(1-methyl-1H-pyrazol-4-yl)benzamide]",IC50,[1],942 nM
same,IC50,[2],376 nM
"CN1CCN(C(=O)c2ccc(C(=O)c3c[nH]c4ncnc(N[C@@H]5CC[C@@H](CO)OC5)c34)c(Cl)c2)CC1 [Compound I-620, (3-chloro-4-(4-(((3R,6S)-6-(hydroxymethyl)tetrahydro-2H-pyran-3-yl)amino)-7H-pyrrolo[2,3-d]pyrimidine-5-carbonyl)phenyl)(4-methylpiperazin-1-yl)methanone]",inhibition at 10 µM,[1],70%
same,IC50,[2],598 nM
"O=C(NC1CC2(COC2)C1)c1ccc(C(=O)c2c[nH]c3ncnc(N[C@@H]4CC[C@@H](CO)OC4)c23)c(Cl)c1 [Compound I-621, 3-chloro-4-(4-(((3R,6S)-6-(hydroxymethyl)tetrahydro-2H-pyran-3-yl)amino)-7H-pyrrolo[2,3-d]pyrimidine-5-carbonyl)-N-(2-oxaspiro[3.3]heptan-6-yl)benzamide]",inhibition at 10 µM,[1],85%
same,IC50,[2],571 nM
"CN1CCN(C(=O)c2ccc(Cl)c(C(=O)c3c[nH]c4ncnc(N[C@@H]5CC[C@@H](CO)OC5)c34)c2)CC1 [Compound I-622, (4-chloro-3-(4-(((3R,6S)-6-(hydroxymethyl)tetrahydro-2H-pyran-3-yl)amino)-7H-pyrrolo[2,3-d]pyrimidine-5-carbonyl)phenyl)(4-methylpiperazin-1-yl)methanone]",inhibition at 10 µM,[1],62%
same,IC50,[2],847 nM
"O=C(c1cc(C(=O)N2CCCCC2)ccc1Cl)c1c[nH]c2ncnc(N[C@@H]3CC[C@@H](CO)OC3)c12 [Compound I-623, (4-chloro-3-(4-(((3R,6S)-6-(hydroxymethyl)tetrahydro-2H-pyran-3-yl)amino)-7H-pyrrolo[2,3-d]pyrimidine-5-carbonyl)phenyl)(piperidin-1-yl)methanone]",IC50,[1],185 nM
same,IC50,[2],124 nM
"COCCNC(=O)c1ccc(Cl)c(C(=O)c2c[nH]c3ncnc(N[C@@H]4CC[C@@H](CO)OC4)c23)c1 [Compound I-624, 4-chloro-3-(4-(((3R,6S)-6-(hydroxymethyl)tetrahydro-2H-pyran-3-yl)amino)-7H-pyrrolo[2,3-d]pyrimidine-5-carbonyl)-N-(2-methoxyethyl) benzamide]",inhibition at 10 µM,[1],53%
same,IC50,[2],1210 nM
"O=C(c1cc(C(=O)N2CCc3ccccc3C2)ccc1Cl)c1c[nH]c2ncnc(N[C@@H]3CC[C@@H](CO)OC3)c12 [Compound I-625, (4-chloro-3-(4-(((3R,6S)-6-(hydroxymethyl)tetrahydro-2H-pyran-3-yl)amino)-7H-pyrrolo[2,3-d]pyrimidine-5-carbonyl)phenyl)(3,4-dihydroisoquinolin-2(1H)-yl)methanone]",IC50,[1],170 nM
same,IC50,[2],110 nM
"O=C(NCCN1CCOCC1)c1ccc(Cl)c(C(=O)c2c[nH]c3ncnc(N[C@@H]4CC[C@@H](CO)OC4)c23)c1 [Compound I-626, 4-chloro-3-(4-(((3R,6S)-6-(hydroxymethyl)tetrahydro-2H-pyran-3-yl)amino)-7H-pyrrolo[2,3-d]pyrimidine-5-carbonyl)-N-(2-morpholinoethyl) benzamide]",IC50,[1],757 nM
same,IC50,[2],164 nM
"O=C(c1cc(C(=O)N2CCN(c3ccccn3)CC2)ccc1Cl)c1c[nH]c2ncnc(N[C@@H]3CC[C@@H](CO)OC3)c12 [Compound I-627, (4-chloro-3-(4-(((3R,6S)-6-(hydroxymethyl)tetrahydro-2H-pyran-3-yl)amino)-7H-pyrrolo[2,3-d]pyrimidine-5-carbonyl)phenyl)(4-(pyridin-2-yl)piperazin-1-yl)methanone]",IC50,[1],664 nM
same,IC50,[2],777 nM
"O=C(NCc1ccccc1)c1ccc(Cl)c(C(=O)c2c[nH]c3ncnc(N[C@@H]4CC[C@@H](CO)OC4)c23)c1 [Compound I-628, N-benzyl-4-chloro-3-(4-(((3R,6S)-6-(hydroxymethyl)tetrahydro-2H-pyran-3-yl)amino)-7H-pyrrolo[2,3-d]pyrimidine-5-carbonyl)benzamide]",IC50,[1],161 nM
same,IC50,[2],59.7 nM
"Cn1cc(NC(=O)c2ccc(Cl)c(C(=O)c3c[nH]c4ncnc(N[C@@H]5CC[C@@H](CO)OC5)c34)c2)cn1 [Compound I-629, 4-chloro-3-(4-(((3R,6S)-6-(hydroxymethyl)tetrahydro-2H-pyran-3-yl)amino)-7H-pyrrolo[2,3-d]pyrimidine-5-carbonyl)-N-(1-methyl-1H-pyrazol-4-yl)benzamide]",IC50,[1],804 nM
same,IC50,[2],89.5 nM
"N#Cc1cccc(NC(=O)c2ccc(Cl)c(C(=O)c3c[nH]c4ncnc(N[C@@H]5CC[C@@H](CO)OC5)c34)c2)c1 [Compound I-630, 4-chloro-N-(3-cyanophenyl)-3-(4-(((3R,6S)-6-(hydroxymethyl)tetrahydro-2H-pyran-3-yl)amino)-7H-pyrrolo[2,3-d]pyrimidine-5-carbonyl)benzamide]",IC50,[1],189 nM
same,IC50,[2],18.4 nM
"O=C(Nc1ccccc1)c1ccc(Cl)c(C(=O)c2c[nH]c3ncnc(N[C@@H]4CC[C@@H](CO)OC4)c23)c1 [Compound I-631, 4-chloro-3-(4-(((3R,6S)-6-(hydroxymethyl)tetrahydro-2H-pyran-3-yl)amino)-7H-pyrrolo[2,3-d]pyrimidine-5-carbonyl)-N-phenylbenzamide]",IC50,[1],177 nM
same,IC50,[2],52.1 nM
"O=C(c1ccc(C(=O)N2CCOCC2)cc1)c1c[nH]c2ncnc(N[C@@H]3CC[C@@H](CO)OC3)c12 [Compound I-632, (4-(((3R,6S)-6-(hydroxymethyl)tetrahydro-2H-pyran-3-yl)amino)-7H-pyrrolo[2,3-d]pyrimidin-5-yl)(4-(morpholine-4-carbonyl)phenyl) methanone]",inhibition at 10 µM,[1],66%
same,inhibition at 10 µM,[2],84%
"Cn1cc(NC(=O)c2ccc(C(=O)c3c[nH]c4ncnc(N[C@@H]5CC[C@@H](CO)OC5)c34)cc2)cn1 [Compound I-633, 4-(4-(((3R,6S)-6-(hydroxymethyl)tetrahydro-2H-pyran-3-yl)amino)-7H-pyrrolo[2,3-d]pyrimidine-5-carbonyl)-N-(1-methyl-1H-pyrazol-4-yl)benzamide]",inhibition at 10 µM,[1],50%
same,inhibition at 10 µM,[2],77%
"O=C(Nc1ccccc1)c1cccc(C(=O)c2c[nH]c3ncnc(N[C@@H]4CC[C@@H](CO)OC4)c23)c1 [Compound I-634, 3-(4-(((3R,6S)-6-(hydroxymethyl)tetrahydro-2H-pyran-3-yl)amino)-7H-pyrrolo[2,3-d]pyrimidine-5-carbonyl)-N-phenylbenzamide]",IC50,[1],690 nM
same,IC50,[2],620 nM
"O=C(c1cccc(C(=O)N2CCOCC2)c1)c1c[nH]c2ncnc(N[C@@H]3CC[C@@H](CO)OC3)c12 [Compound I-635, (4-(((3R,6S)-6-(hydroxymethyl)tetrahydro-2H-pyran-3-yl)amino)-7H-pyrrolo[2,3-d]pyrimidin-5-yl)(3-(morpholine-4-carbonyl)phenyl) methanone]",inhibition at 10 µM,[1],49%
same,inhibition at 10 µM,[2],73%
"COCCNC(=O)c1ccc(C(=O)c2c[nH]c3ncnc(N[C@@H]4CC[C@@H](CO)OC4)c23)cc1 [Compound I-636, 4-(4-(((3R,6S)-6-(hydroxymethyl)tetrahydro-2H-pyran-3-yl)amino)-7H-pyrrolo[2,3-d]pyrimidine-5-carbonyl)-N-(2-methoxyethyl)benzamide]",inhibition at 10 µM,[1],41%
same,inhibition at 10 µM,[2],62%
